From patent US8067422B2, “Crystal form of phenylamino pyrimidine derivatives” (Natco Pharma Limited, priority 2008, dated 2011)
“Also recorded” adds a separate entry of the source.

What was measured:
K562 cells = assay: Spleenic enlargement and spleen Crk immunocytochemistry in K562 implanted nude mice; type: in vivo; conditions: ip injections
Protocol: Control mice were sacrificed on day 42 when secondary leukemia symptoms were observed, such as abdominal swelling and lack of circulation in the peripherals causing loss of digits with red spots under the skin surface. Spleen and any secondary tumors were harvested, fixed in formaldehyde and paraffin embedded as per standard protocols. Paraffin section were obtained and processed for immunocytochemistry. The rehydrated sections were treated with 0.3% H2O2 to inactivate any native peroxidases prior to immuno-probing. The sections were blocked with filter sterilized (0.22 μm) 1% BSA-PBS at room temperature for 1 h. Following blocking, the sections were immuno-probed with a human specific anti-Crk monoclonal primary antibody raised in rabbit against a synthetic peptide corresponding to residues in the SH2 domain, near the N-term of human CrkL protein (Abcam, Cambridge, Mass., USA) in 1% BSA-PBS overnight. Secondary antibody (anti-rabbit) conjugated to HRP was used to detect the presence of primary antibody. The sections were briefly rinsed three times in PBS solution after immuno-probing with secondary antibody, and DAB HRP substrate was added per manufacture's instructions (Sigma St Louis Mo. USA). The reaction was allowed to proceed until sharp contrast between positive and negative controls was observed. For negative controls primary antibody were eliminated. Leukemic mice spleen served as positive controls.
Mice were sacrificed after a decrease in LGI was observed and spleen harvested. […] Control mice also developed random subcutaneous tumors showing Crk expression, indicative of the presence of K562 cells.

5310 glioma cells [1] = assay: Matrigel invasion assay (modified Boyden chamber), 5310; type: cell-based; conditions: 5310
Protocol: (§1) The in vitro invasiveness of 4910, 5310 and U87 glioma cells and MDAMB231 and ZR71 breast cancer cells in the presence of specified concentrations of compounds were assessed using a modified Boyden chamber assay. Cells were treated with these compounds for 48 h. 1×10^6 cells were suspended in 600 μl of serum-free medium supplemented with 0.2% BSA and placed in the upper compartment of the transwell chambers (Corning Costar Fischer Scientific Cat #07-200-158, Pittsburgh Pa.) coated with Matrigel (0.7 mg/ml). The lower compartment of the chamber was filled with 200 μl of serum medium and the cells were allowed to migrate for 24 h. After incubation, the cells were fixed and stained with Hema-3 and quantified as previously described (Mohanam et al. 1993). The migrated cells were imaged microscopically to determine the reduction in invasiveness induced by the compounds of this invention.

[2] = test system: K562 luc human leukemia cells; assay: Luciferase expression in nude mice implanted with K562 luc cells, low dose oral administration; type: in vivo
Protocol: Five mice were used per group and divided into 24 groups+2 control. All groups were implanted with K562 normal/luc cells. Of the 24 groups, 12 were used for luciferase studies whereas the other 12 were used for blood smear count studies.
Drugs were administered by oral gavage (2% gum acacia and 2% SLS in an aqueous suspension).

4910 glioma cells = assay: Matrigel invasion assay (modified Boyden chamber), 4910; type: cell-based, human
Protocol: as §1

5310 glioma cells [3] = assay: In vitro angiogenic assay, 5310 conditioned media on human dermal endothelial cells; type: cell-based; conditions: 5310 cells
Protocol: (§2) The in vitro angiogenesis of 4910, 5310 and U87 glioma cells and MDAMB231 and ZR71 breast cancer cells in the presence of specified concentrations of compounds were determined as follows, cells (2×10^4/well) were seeded in 8-well chamber slides and were treated with various concentrations of test compounds. After a 24 h incubation period, the conditioned media was removed and added to a 4×10^4 human dermal endothelial cell (monolayer in 8-well chamber slides) and the human dermal endothelial cells were allowed to grow for 72 h. Cells were then fixed in 3.7% formaldehyde and stained with H&E and photographed.

U87 glioma cells = assay: In vitro angiogenic assay, U87 conditioned media on human dermal endothelial cells; type: cell-based
Protocol: as §2

[4] = test system: Baf3 murine leukemia cells (T315I); assay: Blast cell count in nude mice implanted with Baf3 T315I cells; type: in vivo; conditions: Baf3T315I; Imatinib 10 mg/kg, AN019 20 mg/kg, AN024 20 mg/kg, oral gavage or ip; day 42
Text: (§3) Blood smears were obtained via the tail vein or via the femoral vein every 6th day and blast cells counted and graphically represented.
(§4) Abdominal swelling and decrease in activity was monitored daily, blood smear taken via the tail vein or the femoral vein every 6th day and H&E stained as per standard protocols. 42 days after implantation, mice were sacrificed and spleens harvested.
(§5) Nude mice were intraperitoneally implanted with Baf3 mutant cells (wt, T315I, M351T or E255K). […] Blood was drawn from the femoral vein or tail vein every 6th day and blast cell count determined and graphically represented.

[5] = test system: 4910 human glioma xenograft cells; assay: Glioma radiation study, nude mice intracranially implanted with 4910 cells; type: in vivo
Protocol: Nude mice were intracranially implanted with 4910 human glioma xenograft cells (1×10^6 cells). Ten days after implantation mice were treated with AN019, AN024 or temozolomide with or without radiation (5 Gy/week). The experiment was terminated at day 40 post implantation.

[6] = test system: Baf3 murine leukemia cells (M351T); assay: Blast cell count in nude mice implanted with Baf3 M351T cells; type: in vivo; conditions: Baf3M351T; Imatinib 10 mg/kg, AN019 20 mg/kg, AN024 20 mg/kg, oral gavage or ip; day 42
Text: as §3, §4, §5

[7] = test system: pAKT and pERK in glioma and breast cancer cells; assay: Western blot analysis, pAKT and pERK (cell line not specified); type: cell-based; conditions: both with and without radiation
Protocol: (§6) Western blot analysis of 4910, 5310 and U87 glioma cells and MDAMB231 and ZR71 breast cancer cells in the presence of specified concentrations of compounds were assessed as per standard protocols. Cells were treated with AN019, AN024 or Temozolomide at the specified concentrations. 24 h after treatment, cells were collected and cell lysates extracted. Equal quantities of proteins were fractionated by SDS-PAGE. The fractionated proteins were blotted on to nylon membranes and immunoprobed for AKT, ERK and Pi3k. Breast cancer cell protein isolates were additionally immunoprobed for EGFR, ErbB1, ErbB2 and ErbB3.

[8] = test system: Baf3 murine leukemia cells (Wt); assay: Blast cell count in nude mice implanted with Baf3 Wt cells; type: in vivo; conditions: Baf3Wt; Imatinib 10 mg/kg, AN019 20 mg/kg, AN024 20 mg/kg, oral gavage or ip; day 42
Text: as §3, §4, §5

in vivo = conditions: mouse
[9] = test system: Baf3 murine leukemia cells (E255K); assay: Blast cell count in nude mice implanted with Baf3 E255K cells; type: in vivo; conditions: Baf3 E225K (E255K); Imatinib 10 mg/kg, AN019 20 mg/kg, AN024 20 mg/kg, oral gavage or ip; day 42
Text: as §3, §4, §5

[10] = test system: AKT, ERK and Pi3k in 5310 glioma cells; assay: Western blot analysis, 5310; type: cell-based
Protocol: as §6

Which “Crk expression in spleen (immunohistochemistry)” value (K562 cells) does the source give for `Cc1ccc(NC(=O)c2cc(C(F)(F)F)cc(C(F)(F)F)c2)cc1Nc1nccc(-c2cccnc2)n1` [AN019, (3,5-bis trifluoromethyl)-N-[4-methyl-3-(4-pyridin-3yl-pyrimidin-2ylamino)-phenyl]-benzamide] here?
Its value is “basal levels of Crk expression; also recorded: only basal level expression”.

What about the “Spleenic enlargement (gross observation)” value (K562 cells) of the same compound?
Its value is “did not show any spleenic enlargement”.

What about the “±Change in invasion after radiation” value (5310 glioma cells [1]) of the same compound?
The value was “+1%”.

What about the Luciferase expression ([2]; 1 mg/kg) of the same compound?
The Luciferase expression was “did not induce a decrease in luciferase expression”.

And the Luciferase expression ([2]; 5 mg/kg)?
Its Luciferase expression is “fixation of leukemia cells at constant expression levels”.

And the Luciferase expression ([2]; 10 mg/kg)?
The Luciferase expression was “decrease in luciferase expression”.

And the Luciferase expression ([2]; 20 mg/kg)?
Its Luciferase expression is “decrease in luciferase expression”.

What about the “±Change in invasion after radiation” value (4910 glioma cells; 4910) of the same compound?
The value was −27%.

And the “+Radiation % Invasion” value (4910 glioma cells; 4910, with radiation, 48 h treatment)?
The value was 15%.

And the Inhibition of angiogenesis (5310 glioma cells [3]; after radiation)?
The Inhibition of angiogenesis was “inhibition of angiogenesis was greater in control conditions than after radiation treatment”.

And the Inhibition of angiogenesis (5310 glioma cells [3]; control conditions (without radiation))?
The Inhibition of angiogenesis was “inhibition of angiogenesis was greater in control conditions than after radiation treatment”.

What about the Inhibition of angiogenesis (U87 glioma cells; after radiation) of the same compound?
The Inhibition of angiogenesis was “significant retardation in angiogenesis”.

And the Inhibition of angiogenesis (U87 glioma cells; without radiation)?
The Inhibition of angiogenesis was “significant retardation in angiogenesis”.

What about the “Blast cell count in blood smears” value [4] of the same compound?
The value was “significant decrease in blast cell count”.

And the “Intracranial tumour size and appearance” value ([5]; with radiation (5 Gy/week))?
Its value is “tumor size was significantly reduced”.

And the “Intracranial tumour size and appearance” value ([5]; without radiation)?
Its value is “tumours similar to AN024 treated animals”.

What about the “Blast cell count in blood smears” value [6] of the same compound?
Its value is “significant decrease in blast cell count”.

What about the “pERK levels (Western blot)” value [7] of the same compound?
The value was “reduced significantly”.

And the “Blast cell count in blood smears” value [8]?
Its value is “complete regression of leukemic blast cells”.

What about the MTD (in vivo) of the same compound?
The MTD was 500 mg/kg.

What about the “Blast cell count in blood smears” value [9] of the same compound?
The value was “significant decrease in blast cell count”.

And the “AKT expression levels (Western blot)” value [10]; 5310?
The value was “decrease in AKT expression levels”.

What about the “PI3k levels (Western blot)” value ([10]; 5310, after radiation) of the same compound?
Its value is “reappeared after radiation treatment”.

What about the “PI3k levels (Western blot)” value ([10]; 5310, without radiation) of the same compound?
Its value is “almost undetectable”.
